Experimental data: PMC6017357, “In Vitro Inhibitory Effects of Synthetic Cannabinoid EAM-2201 on Cytochrome P450 and UDP-Glucuronosyltransferase Enzyme Activities in Human Liver Microsomes” (Molecules : A Journal of Synthetic Chemistry and Natural …, 2018)

Biological target: T1, CYP2B6 (Homo sapiens, UniProt P20813)
T1 construct: from tissue; host or cells: ultrapooled human liver microsomes
T1 sequence (P20813 1-491): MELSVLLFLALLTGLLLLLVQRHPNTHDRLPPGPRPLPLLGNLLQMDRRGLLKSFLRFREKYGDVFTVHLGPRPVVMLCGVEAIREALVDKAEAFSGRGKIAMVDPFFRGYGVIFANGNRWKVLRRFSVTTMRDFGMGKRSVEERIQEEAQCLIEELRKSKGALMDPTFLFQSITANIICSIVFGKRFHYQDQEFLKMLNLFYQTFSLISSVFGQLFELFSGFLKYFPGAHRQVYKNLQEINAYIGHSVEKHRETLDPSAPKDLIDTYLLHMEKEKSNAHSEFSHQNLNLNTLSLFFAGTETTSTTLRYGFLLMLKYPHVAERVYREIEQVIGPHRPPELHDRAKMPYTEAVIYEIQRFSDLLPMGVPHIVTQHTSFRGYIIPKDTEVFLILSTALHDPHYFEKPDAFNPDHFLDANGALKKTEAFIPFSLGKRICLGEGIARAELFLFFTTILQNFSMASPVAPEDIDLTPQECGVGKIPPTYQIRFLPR
Experiment: CYP2B6-mediated bupropion hydroxylation in pooled human liver microsomes
Assay type: in vitro ADME
Settings: up to 50 µM, without 30-min preincubation
Protocol: The inhibitory effects (IC50 values) of EAM-2201 on CYP2B6-catalyzed bupropion 4-hydroxylase activity were determined in ultrapooled human liver microsomes using LC-MS/MS [41]. Each incubation mixture was prepared in a total volume of 100 µL as follows: pooled human liver microsomes (5.2 pmol CYP), 1.0 mM NADPH, 10 mM magnesium chloride, 50 mM potassium phosphate buffer (pH 7.4), various concentrations of EAM-2201 in DMSO (final 0.1–50 µM, 0.5% DMSO) and CYP2B6-selective substrate and 50 µM bupropion. After a 3-min preincubation at 37 °C, reactions were initiated by adding NADPH, followed by incubation for 15 min at 37 °C in a shaking water bath. […] Aliquots (5 µL) of the diluted supernatants were analyzed by LC-MS/MS. […]
The metabolites formed from CYP substrates were simultaneously quantified using our previously described LC-MS/MS method. […] Quantification was performed by selected reaction monitoring (SRM) of the [M + H]^+ ion and the related product ion for each metabolite: acetaminophen, 152.1 > 110.3; N-desethylamodiaquine, 328.1 > 283.0; 7-hydroxycoumarin, 163.0 > 107.2; 4-hydroxybupropion, 256.1 > 238.0; 4′-hydroxydiclofenac, 312.0 > 231.1; 4′-hydroxy-mephenytoin, 235.1 > 150.1; 1′-hydroxybufuralol, 278.1 > 186.1; 1′-hydroxymidazolam, 341.9 > 324.0; ^13C2,^15N-acetaminophen, 155.1 > 111.2; and d9-1′-hydroxybufuralol, 287.2 > 187.0. […]

CCc1ccc(C(=O)c2cn(CCCCCF)c3ccccc23)c2ccccc12 [EAM-2201, (4-ethyl-1-naphthalenyl)[1-(5-fluoropentyl)-1H-indol-3-yl]-methanone]
inhibition of CYP2B6-mediated bupropion hydroxylation: negligibly inhibited
